The Deep4Chem optical property database
Each block holds one molecule with its values, some of them ahead of it.

Assay: photoluminescence quantum yield (fraction); solvent given as SMILES

photoluminescence quantum yield (in ClCCl): 0.09
SMILES: COc1cc2c3sc4ccccc4c3c3cncnc3c2c(OC)c1OC

photoluminescence quantum yield (in CC#N): 0.29
SMILES: Cc1cc2c(ccc3c(C)[n+](C)c(C)cc32)c(C)[n+]1C

photoluminescence quantum yield (in ClCCl): 0.148
SMILES: CCCCCCCCCCCCN1C(=O)c2c(c3ccc4cc(-c5ccccc5)c(OC)cc4c3c3c2ccc2cc(-c4ccccc4)c(OC)cc23)C1=O

photoluminescence quantum yield (in C1CCOC1): 0.2
SMILES: F[B-]1(F)n2c(c(-c3ccccc3)c(-c3ccccc3)c2-c2ccccc2)C(c2ccccc2)=C2C(c3ccccc3)=C(c3ccccc3)C(c3ccccc3)=[N+]21

photoluminescence quantum yield (in C1CCCCC1): 0.47
photoluminescence quantum yield (in CC#N): 0.5
photoluminescence quantum yield (in ClCCl): 0.57
SMILES: c1ccc2c(-c3ccc4sc5ccc(-c6c7ccccc7cc7ccccc67)cc5c4c3)c3ccccc3cc2c1

photoluminescence quantum yield (in ClCCl): 0.75
SMILES: c1ccc(-c2c3ccccc3c(-c3ccc4ccccc4c3)c3ccccc23)nc1

photoluminescence quantum yield (in ClCCl): 0.52
SMILES: CN(C)c1cc(-c2ccccc2)cc2ccccc12

photoluminescence quantum yield (in C1CCCCC1): 0.89
photoluminescence quantum yield (in CC#N): 0.86
photoluminescence quantum yield (in CC(C)O): 0.96
photoluminescence quantum yield (in CO): 0.84
photoluminescence quantum yield (in CS(C)=O): 0.98
photoluminescence quantum yield (in ClC(Cl)Cl): 0.96
photoluminescence quantum yield (in c1ccccc1): 0.85
SMILES: CN(C)c1ccc2nc(-c3ccc(C(=O)O)cc3)sc2c1

photoluminescence quantum yield (in ClCCl): 0.04
SMILES: CC(C)(C)NC(=O)c1ccc(F)c2ccc3c4ccccc4c4ccccc4c3c12

photoluminescence quantum yield (in C1CCCCC1): 0.75
SMILES: N#Cc1cc(C#N)c(-c2ccc(N(c3ccccc3)c3ccccc3)cc2)cc1-c1ccc(N(c2ccccc2)c2ccccc2)cc1

SMILES: CCCCCCCCCC1(CCCCCCCCC)c2cc(C#Cc3ccc(/C=C/c4ccc(N(CCCCCCCC)CCCCCCCC)cc4)cc3)ccc2-c2ccc(C#Cc3ccc(/C=C/c4ccc(N(CCCCCCCC)CCCCCCCC)cc4)cc3)cc21
photoluminescence quantum yield (in Cc1ccccc1): 0.61

photoluminescence quantum yield (in CC#N): 0.22
SMILES: CCN(CC)c1ccc(/C=N/c2ccccc2/N=C/c2ccc(N(CC)CC)cc2O)c(O)c1

photoluminescence quantum yield (in C1CCCCC1): 0.5
photoluminescence quantum yield (in CC#N): 0.017
SMILES: C[Si](C)(c1cccc2ccccc12)[Si](C)(C)[Si](C)(C)[Si](C)(C)[Si](C)(C)[Si](C)(C)c1c2ccccc2cc2ccccc12

photoluminescence quantum yield (in C1CCCCC1): 0.23
photoluminescence quantum yield (in C1CCOC1): 0.09
photoluminescence quantum yield (in CC#N): 0.04
photoluminescence quantum yield (in ClC(Cl)Cl): 0.1
photoluminescence quantum yield (in c1ccccc1): 0.14
SMILES: Cc1cc(C)c(B(c2c(C)cc(C)cc2C)c2cc3ccc4ccccc4c3c3c2cc(N(C)C)c2ccccc23)c(C)c1

photoluminescence quantum yield (in ClC(Cl)Cl): 0.16
SMILES: COc1ccc(-c2nc(-c3ccccc3)c(N(c3ccccc3)c3ccccc3)s2)cc1

photoluminescence quantum yield (in CS(C)=O): 0.11
SMILES: COc1cccc2cc(-c3cc4cccc(OC)c4oc3=O)oc12

photoluminescence quantum yield (in CC#N): 0.956
SMILES: COc1ccc(-n2nc(C#N)c(NC3CCCCC3)n2)cc1

photoluminescence quantum yield (in C1CCCCC1): 0.84
photoluminescence quantum yield (in CC#N): 0.005
photoluminescence quantum yield (in CO): 0.003
photoluminescence quantum yield (in ClC(Cl)Cl): 0.88
SMILES: CN(C)c1ccc(C#Cc2ccc(-c3nc(C#N)c(C#N)n3C)cc2)cc1

SMILES: CC(=O)N(Cc1ccccn1)c1c2ccccc2c2c3c(cccc13)C(=O)N(Cc1ccccn1)C2=O
photoluminescence quantum yield (in C1CCOC1): 0.36
photoluminescence quantum yield (in CCCCCC): 0.59
photoluminescence quantum yield (in CCO): 0.35
photoluminescence quantum yield (in Cc1ccccc1): 0.52
photoluminescence quantum yield (in ClCCl): 0.48

photoluminescence quantum yield (in ClC(Cl)Cl): 0.678
SMILES: COc1ccc(C2=Cc3c4ccccc4c4ccccc4[n+]3[B-](F)(F)O2)cc1

SMILES: CC1(C)c2ccccc2N(c2ccccc2)c2ccc(-c3ccc(-c4ccc5c(c4)C(C)(C)c4ccccc4N5c4ccccc4)c4nsnc34)cc21
photoluminescence quantum yield (in c1ccc2c(c1)c1ccccc1n2-c1ccc(-c2ccc(-n3c4ccccc4c4ccccc43)cc2)cc1): 0.92

photoluminescence quantum yield (in ClCCl): 0.65
SMILES: CN(C)c1ccc(C#Cc2cc(C#Cc3ccc(N(C)C)cc3)c3ccc4c(C#Cc5ccc(C(F)(F)F)cc5)cc(C#Cc5ccc(N(C)C)cc5)c5ccc2c3c54)cc1

SMILES: CCN(CC)c1ccc([N+]2=Cc3ccc4c5c(ccc4c3O[B-]2(c2ccccc2)c2ccccc2)C=[N+](c2ccc(N(CC)CC)cc2)[B-](c2ccccc2)(c2ccccc2)O5)cc1
photoluminescence quantum yield (in Cc1ccccc1): 0.4
photoluminescence quantum yield (in ClCCl): 0.29

photoluminescence quantum yield (in CO): 0.02
SMILES: N[C@@H](Cn1nnc2cc(-c3ccc4c(c3)OCO4)ccc21)C(=O)O

photoluminescence quantum yield (in ClCCl): 0.45
SMILES: COc1ccc(-c2c3cc4ccccc4cc3c(C#Cc3ccccc3)c3cc4cc(C)sc4cc23)cc1

photoluminescence quantum yield (in C1COCCO1): 0.158
SMILES: N#Cc1ccc(/C=C2\N=C(c3ccccc3)NC2=O)cc1

photoluminescence quantum yield (in CC#N): 0.44
SMILES: O=C(O)c1ccc(-c2ccc(-c3nc(-c4ccccc4)c4ccccn34)cc2)s1

photoluminescence quantum yield (in ClCCl): 0
SMILES: Cc1cc2ccccc2c2c1c1ccccc1n2-c1ncccn1

SMILES: CC1(C)c2ccccc2N(c2ccc(-c3nc4cccc5c4n3-c3ccccc3C5(C)C)cc2)c2ccccc21
photoluminescence quantum yield (in Cc1ccccc1): 0.34
photoluminescence quantum yield (in O=P(c1ccccc1)(c1ccccc1)c1ccccc1Oc1ccccc1P(=O)(c1ccccc1)c1ccccc1): 0.51

photoluminescence quantum yield (in ClCCl): 0.72
SMILES: CCCCC(CC)COc1ccc2nc(-c3ccc(-c4c(C)noc4C)s3)sc2c1 (stereo not given)

SMILES: CC1(C)c2ccccc2N(c2ccc(-c3ccc4c(c3)c3cc(-c5ccc(N6c7ccccc7C(C)(C)c7ccccc76)cc5)ccc3c3nc(C#N)c(C#N)nc43)cc2)c2ccccc21
photoluminescence quantum yield (in Cc1ccccc1): 0.33
photoluminescence quantum yield (in O=P(c1ccccc1)(c1ccccc1)c1cccc(-c2cc(-n3c4ccccc4c4ccccc43)cc(-n3c4ccccc4c4ccccc43)c2)n1): 0.65

photoluminescence quantum yield (in C1CCOC1): 0.23
SMILES: N#Cc1c(N2CCCCC2)cc(-c2ccc(-c3ccccc3)s2)c2c1CCc1ccccc1-2

SMILES: N#Cc1cc2ccc(O)cc2oc1=O
photoluminescence quantum yield (in C1CCCCC1): 0.0105
photoluminescence quantum yield (in C1CCOC1): 0.00102
photoluminescence quantum yield (in CC#N): 0.00059
photoluminescence quantum yield (in CCOC(C)=O): 0.0597
photoluminescence quantum yield (in CS(C)=O): 0.00123
photoluminescence quantum yield (in ClC(Cl)Cl): 0.0509

photoluminescence quantum yield (in CC#N): 0.19
SMILES: CCC12N=N[C@](CC)(C3C4CCC(C4)C31)C1[C@@H]3CC[C@@H](C3)[C@H]12 (stereo not given in full)

photoluminescence quantum yield (in ClCCl): 0.14
SMILES: C[Si]1(C)c2ccccc2-c2ccccc21

photoluminescence quantum yield (in ClCCl): 0.2
SMILES: [O-][n+]1c(-c2ccccc2)cc(N2CCOCC2)nc1/C=C/c1ccccc1

SMILES: CCCCN1C(=O)C(=C/C=C/C=C2N(CCCC)c3ccccc3N2CCCC)C(=O)N(CCCC)C1=S
photoluminescence quantum yield (in CCCCCC): 0.115
photoluminescence quantum yield (in CCO): 0.013
photoluminescence quantum yield (in CN(C)C=O): 0.023
photoluminescence quantum yield (in Cc1ccccc1): 0.168
photoluminescence quantum yield (in ClC(Cl)Cl): 0.046
photoluminescence quantum yield (in ClCCl): 0.032

photoluminescence quantum yield (in ClCCl): 0.01
SMILES: CN(C)c1ccc(/C=C/c2ncccn2)cc1

photoluminescence quantum yield (in ClCCCl): 0.022
SMILES: N#Cc1ccc2nc3[nH]c(=O)[nH]c(=O)c3nc2c1

photoluminescence quantum yield (in ClCCl): 0.04
SMILES: CCN(CC)c1ccc2c(-c3ccccc3C(=O)O)c3c([o+]c2c1)/C(=C/c1ccc(N(C)C)s1)CCC3

photoluminescence quantum yield (in CCO): 0.18
SMILES: N#CC1=C(c2ccc(-c3cccs3)s2)CC1

photoluminescence quantum yield (in C1CCOC1): 0.04
SMILES: C[Si]1(c2ccccc2)C(c2ccc3c(c2)c2ccccc2n3-c2ccccc2)=C(c2ccccc2)C(c2ccccc2)=C1c1ccc2c(c1)c1ccccc1n2-c1ccccc1

SMILES: CCCCOC(=O)c1cc(Cl)c2c3c(Cl)cc4c5c(cc(Cl)c(c6c(Oc7ccc(OC)cc7)cc(C(=O)OCCCC)c1c26)c53)C(=O)N(c1c(C(C)C)cccc1C(C)C)C4=O
photoluminescence quantum yield (in Cc1ccccc1): 0.12

photoluminescence quantum yield (in ClCCl): 0.9
SMILES: COc1ccc(N(c2ccc(OC)cc2)c2ccc3c(c2)C2(c4cc(N(c5ccc(OC)cc5)c5ccc(OC)cc5)ccc4C=C3)c3ccccc3-c3ccccc32)cc1

photoluminescence quantum yield (in ClCCl): 0.25
SMILES: Fc1ccc(C#Cc2c(C#Cc3ccc(F)cc3)c(C#Cc3ccc(F)cc3)c(C#Cc3ccc(F)cc3)c(C#Cc3ccc(F)cc3)c2C#Cc2ccc(F)cc2)cc1

photoluminescence quantum yield (in C1CCCCC1): 0.0001
photoluminescence quantum yield (in C1COCCO1): 0.0001
photoluminescence quantum yield (in CC#N): 0.001
photoluminescence quantum yield (in CCO): 0.007
photoluminescence quantum yield (in OCC(F)(F)F): 0.03
SMILES: Cc1cc2c(o1)c(C)cc1ccc(=O)oc12

photoluminescence quantum yield (in CN(C)C=O): 0.73
photoluminescence quantum yield (in ClC(Cl)Cl): 0.8
SMILES: O=C1C2=C3c4ccsc4C=CN3C(=O)C2=C2c3ccsc3C=CN12

photoluminescence quantum yield (in CC#N): 0.39
SMILES: c1ccc(-c2nc(-c3cccs3)[nH]c2-c2ccccc2)cc1

photoluminescence quantum yield (in C1CCCCC1): 0.3
SMILES: C[Si](C)(C)c1cccc2ccccc12

SMILES: Nc1ccccc1
photoluminescence quantum yield (in C1CCCCC1): 0.1

SMILES: O=[N+]([O-])c1ccc(/C2=C3N=C(C(c4ccccc4)=C/3c3ccccc3)/C(c3ccc([N+](=O)[O-])cc3)=c3\[nH]/c(c(-c4ccccc4)c3-c3ccccc3)=C(/c3ccc([N+](=O)[O-])cc3)C3=N/C(=C(/c4ccc([N+](=O)[O-])cc4)c4[nH]c2c(-c2ccccc2)c4-c2ccccc2)C(c2ccccc2)=C3c2ccccc2)cc1
photoluminescence quantum yield (in ClCCl): 0.003

photoluminescence quantum yield (in ClC(Cl)Cl): 0.15
SMILES: CC(C)(C)c1ccc2oc3nc4oc5ccc(-n6c7ccccc7c7cc(-n8c9ccccc9c9ccccc98)ccc76)cc5c4cc3c2c1

SMILES: F[B-]1(F)n2c(c3cccc4cccc2c43)=Nc2cccc[n+]21
photoluminescence quantum yield (in C1CCOC1): 0.99
photoluminescence quantum yield (in CC#N): 0.99
photoluminescence quantum yield (in CCCCCC): 0.99
photoluminescence quantum yield (in Cc1ccccc1): 0.99
photoluminescence quantum yield (in ClCCl): 0.99

photoluminescence quantum yield (in C1CCCCC1): 0.62
SMILES: c1ccc(-c2ccc(-c3ccc4c(c3)CCCO4)cc2)cc1

photoluminescence quantum yield (in ClCCl): 0.16
SMILES: CCOc1cccc2c1O[B-](F)(F)[n+]1c3c(c4c(c1-2)-c1ccccc1CC4)-c1ccccc1CC3

photoluminescence quantum yield (in ClCCl): 0.58
SMILES: CCCCC(CC)COc1ccc2nc(-c3ccc(-c4ccccc4)s3)sc2c1 (stereo not given)

photoluminescence quantum yield (in C1CCCCC1): 0.11
SMILES: COc1ccc(C2=C(c3ccc(OC)cc3)C(C)(C)c3c2ccc2ccccc32)cc1

photoluminescence quantum yield (in CN(C)C=O): 0.94
SMILES: Cc1ccc2[nH]c(-c3ccc(-c4ccc(-c5ccc(-c6nc7cc(C)ccc7[nH]6)cc5)cc4)cc3)nc2c1

photoluminescence quantum yield (in C1CCCCC1): 0.099
photoluminescence quantum yield (in CC#N): 0.058
photoluminescence quantum yield (in CCO): 0.067
photoluminescence quantum yield (in CCOC(C)=O): 0.073
photoluminescence quantum yield (in CO): 0.061
photoluminescence quantum yield (in OCC(F)(F)F): 0.059
SMILES: Cc1ccc(C2=C3C=C(I)C(I)=[N+]3[B-](F)(F)n3c2cc(I)c3I)cc1

SMILES: CC(C)(C)c1ccc2c(c1)c1cc(C(C)(C)C)ccc1n2-c1ccc(C#Cc2ccc(C=C(C#N)C#N)cc2)cc1
photoluminescence quantum yield (in CC#N): 0.33
photoluminescence quantum yield (in CCCCC): 0.5
photoluminescence quantum yield (in Cc1ccccc1): 0.48
photoluminescence quantum yield (in ClCCl): 0.4
